Experimental data published in PubChem BioAssay AID1985 (Southern Research Specialized Biocontainment Screening …, 2009).
Several values for one entry are separate records, joined by “and”; a condition that tells them apart may be missing. Equal values may be shown once.

Test system: S. Typhi PhoP-promoter GFP reporter, fluorescence, 4 h
Test: PhoP regulon inhibitor project modified counter assay, GFP fluorescence readout, dose response (AID 1985)

Structure (SMILES) | IC50
O=C(Nc1ccccc1)Oc1ccc[nH]c1=O | 55.8 µM
OCCNCc1cc(Br)ccc1OCc1ccc(Cl)cc1 | 121 µM
COc1ccc(OCc2n(CC(=O)OC3CC(C)CCC3C(C)C)c3ccccc3[n+]2C)cc1 (stereo not given) | 80.6 µM
CCCCCCCCCCOC(=O)Cn1c(COc2ccc(OC)cc2)[n+](C)c2ccccc21 | 19.4 µM and 18.5 µM
O=C(N/N=C/c1c[nH]c2ccccc12)c1cccc(O)c1 | 130 µM
O=C(Cc1ccccc1)NNC(=S)NC(=O)c1cccs1 | 37.5 µM
CCN(CC)c1ccc(/C=N/NC(=O)c2ccc3nc[nH]c3c2)c(O)c1 | 46.6 µM
CCNC(=O)Oc1ccc[nH]c1=O | 99.4 µM
CN1CCC(OC(=O)c2cccc(Br)c2)CC1 | 120 µM
Cc1c2ccncc2c(C)c2c1[nH]c1ccccc12 | 32.9 µM
O=C(Oc1c(Br)cc([N+](=O)[O-])cc1Br)c1cccnc1 | 46.5 µM
O=C(Nc1ccc(Cl)cc1)Nc1ccc2c(c1)N1CCN=C1S2 | 57.1 µM
CCN1CCc2c(C#N)c(NCc3ccccc3)nc(NCCO)c2C1 | 140 µM
C#CCOCCOCCOCCNc1nc(N2CCN(C(=O)CCCCCCCCCCNC(=O)[C@H]([C@@H](C)CC)n3cc(CCCCN=C(N)N)nn3)CC2)nc(N2CCN(C(=O)CCCCCCCCCCNC(=O)[C@H](CCCCN)n3cc(C)nn3)CC2)n1 | 69.3 µM
O=C(Nc1ccncc1)Nc1ccc(Cl)cc1 | 40.5 µM
Cc1nc(N)c(Cc2ccc(Cl)cc2Cl)c(N)n1 | 83.9 µM
CC(=O)NC(c1ccc2ccccc2c1)c1ccc2cccnc2c1O (stereo not given) | 68.4 µM
O=C1OCCN1/N=C/c1ccc([N+](=O)[O-])o1 | 13.4 µM
CC(Nc1nc(N2CCCC2)nc2ccccc12)c1ccccc1 (stereo not given) | 149 µM
COc1cc(/C=C2/C(=O)NN(c3ccc(F)cc3)C2=O)cc([N+](=O)[O-])c1O | 34.7 µM
O[C@@H](c1cc(C(F)(F)F)nc2c(C(F)(F)F)cccc12)[C@H]1CCCCN1 | 90.6 µM
O=C(N/N=C/c1c(O)ccc2ccccc12)c1ccc(CO)nc1 | 80.1 µM
O=c1c2ccccc2nc(N/N=C/c2c(O)ccc3ccccc23)n1O | 23 µM

Structure (SMILES) | IC50
CO[C@@]1(NC(=O)C2SC(=C(C(N)=O)C(=O)O)S2)C(=O)N2C(C(=O)O)=C(CSc3nnnn3C)CS[C@@H]21 (stereo not given in full) | 13.1 µM
CCn1cc(C(=O)NCc2ccc3c(c2)OCO3)c(=O)c2cc(F)c(N3CCN(C(=O)c4ccco4)CC3)cc21 | 107 µM
O=C(/C=C/c1ccccc1)c1cc(Br)ccc(=O)c1O | 51.1 µM
C#CCOCCOCCOCCNc1nc(N2CCN(C(=O)[C@H](Cc3cc4ccccc4[nH]3)n3cc([C@@H](N)C(C)CC)nn3)CC2)nc(N2CCN(C(=O)[C@H](Cc3cc4ccccc4[nH]3)n3cc([C@@H](N)Cc4ccc(O)cc4)nn3)CC2)n1 (stereo not given in full) | 60 µM
CCCOc1ccc(C(=O)NNC(=S)NC(C)=O)cc1 | 52.3 µM
NC1=C(Br)C(=O)c2ccccc2C1=O | 20.1 µM
CCN1CCN(C(=O)c2cc3cc(Cl)ccc3[nH]2)CC1 | 67.4 µM
O=C(CNCCC1=CCCCC1)Nc1ccc(N2CCCCCC2)cc1 | 54.2 µM
OCCNc1nc(Nc2ccccc2)nc2ccccc12 | 35.2 µM
COc1ccc2[nH]c3c(C)c4ccncc4c(C)c3c2c1 | 39.2 µM
Cc1ccc(C(=O)N/C(=C\c2ccc(-c3ccc(Br)cc3)o2)C(=O)NCCCN(C)C)cc1 | 66.3 µM
Cc1cccn2c(=O)c(C=O)c(Cl)nc12 | 140 µM
COc1cccc(/C=N\NC(=O)Cn2nnc3ccccc32)c1O | 97.7 µM
O=c1c(O)cccc2cc(O)c(O)c(O)c12 | 17.5 µM
C[C@H]1c2cccc(O)c2C(O)=C2C(=O)C3(O)C(O)=C(C(N)=O)C(=O)[C@@H](N(C)C)[C@@H]3[C@@H](O)[C@@H]21 (stereo not given in full) | 1.9 µM
COCCCNC(=S)NNC(=O)c1ccccn1 | 25.7 µM
O=c1ccnc(Sc2ncccc2[N+](=O)[O-])[nH]1 | 102 µM
OC(CNCc1ccco1)Cn1c2ccc(Br)cc2c2cc(Br)ccc21 (stereo not given) | 28 µM
CCC(O)(CC)C(=O)N/N=C/c1cc(Br)cc(Br)c1O | 60.9 µM
C#CCOCCOCCOCCNc1nc(N2CCN(C(=O)[C@H](Cc3ccc(O)cc3)n3cc([C@@H](N)CC(C)C)nn3)CC2)nc(N2CCN(C(=O)[C@H](Cc3cc4ccccc4[nH]3)n3cc([C@@H](N)CC(C)C)nn3)CC2)n1 | 85.1 µM
Nc1c2ccccc2nc2ccccc12 | 48 µM
CCCCCCCC(=O)N/N=C/c1ccc([N+](=O)[O-])o1 | 30.2 µM
O=C(Oc1c(Cl)cc(Cl)c2cccnc12)c1ccco1 | 11.9 µM

Structure (SMILES) | IC50
Oc1cccc(C=NCc2ccccc2)c1O | 57.7 µM
CC(C)Oc1ccc(Cc2cnc(N)nc2N)cc1 | 50.3 µM
O=C(Cc1ccccc1)N/N=C/c1cc(Br)cc(Cl)c1O | 44.9 µM
C/C(Cn1nnc([N+](=O)[O-])n1)=N\NC(=O)c1ccccc1 | 149 µM
O=C(CSC1=NC(=O)C(c2ccccc2)C(=O)N1)Nc1cccc(Cl)c1 (stereo not given) | 20.6 µM
Oc1[nH]c2ccccc2c1N=NC(=S)N1CCOCC1 | 17.4 µM
NC1=NC[C@H](c2ccccc2)N1CCc1cc(C(F)(F)F)cc(C(F)(F)F)c1 | 55.9 µM
CCCCCCCCC[n+]1cccc2c3ccccc3ccc21 | 26.8 µM
CN(C)CC/C=C1\c2ccccc2Sc2cc(F)c(Cl)cc21 | 65.4 µM
CCc1ccc2c(c1)C1(NN=C(c3ccc(C)cc3)S1)C(=O)N2 (stereo not given) | 24.4 µM
Cc1ccc(Nc2cc(C)c3c(O)cccc3n2)cc1C | 30.7 µM
Oc1c(Br)cc(Br)cc1C=Nc1ccc2[nH]ncc2c1 | 48.6 µM
OCCN1CCN(C2CCC(c3ccc(F)cc3)c3ccc(F)cc32)CC1 (stereo not given) | 67.7 µM
O=C(Nc1nnc(C(F)(F)F)s1)c1ccc(Br)s1 | 66.8 µM
COc1ccccc1CNCCc1ccc(F)cc1 | 36 µM
Nc1nc2ccccc2n1CCOc1ccccc1Cl | 63.1 µM
Cc1c(CCOC(=O)C2C3CC4CC(C3)CC2C4)sc[n+]1CC(=O)c1ccc(Br)cc1 (stereo not given) | 56.9 µM
CCN1/C(=C/c2cc[n+](C)cc2)C=Cc2cc(C)ccc21 | 78.6 µM
Cc1cccc(C(=O)NNC(=S)NC(=O)c2cccs2)c1 | 50.1 µM
Cc1ccc(CNCCC2=CCCCC2)cc1 | 81.9 µM
CCCCOc1ccc(C(=O)OC2CC(C)N(C)CC2C)cc1 (stereo not given) | 41.7 µM
CN(C)CCCN1c2ccccc2Sc2ccccc21 | 103 µM
O=Nc1c(O)c2ccccc2c2ccccc12 | 24.6 µM

Structure (SMILES) | IC50
Cc1cccc(NC2=NC3(CCCCC3)N=C(N)N2)c1 | 88.4 µM
O=C(Cn1cc[n+](CC(=O)c2ccc(Cl)cc2Cl)c1)c1ccc(Cl)cc1Cl | 37.2 µM
COc1cc([N+](=O)[O-])cc(/C=N/NC(=O)C(C)Nc2cccc(C)c2)c1O (stereo not given) | 71.6 µM
CC(=O)Nc1ccc(S(=O)(=O)NNc2cccc(C)c2)cc1 | 58.9 µM
CCCCCC[N+](C)(C)CC/C=C1/c2ccccc2Sc2ccc(Cl)cc21 | 36.3 µM
O=C1c2cccc3cccc(c23)C(=O)C1(O)O | 28.8 µM
CN1C(=O)NC(c2cccc(O)c2)C(C(=O)c2cccs2)C1(O)C(F)(F)F (stereo not given) | 40.6 µM
CCCCCc1ccc(OCCCC[n+]2cccc(C)c2)c(CCCCC)c1 | 103 µM
CCn1cc(C(=O)O)c(=O)c2cc(F)c(N3CCN(C(=S)Nc4ccc(OC)cc4)CC3)cc21 | 5.64 µM
CN(CC(=O)Nc1ccc(F)c(F)c1F)c1cnccn1 | 108 µM
O=C(CCNC(=O)c1ccco1)Nc1ccc(SC(F)F)cc1 | 74.7 µM
c1ccc2cc(CSCc3nc4ccccc4[nH]3)ccc2c1 | 103 µM
O=C(Nc1cccc(Cl)c1)Nc1nccs1 | 55.3 µM
OCCCCNCc1ccc(OCc2ccc(Cl)cc2Cl)cc1 | 133 µM
CC[C@H]1OC(=O)C[C@@H](O)[C@H](C)[C@@H](O[C@@H]2O[C@H](C)C[C@H](N(C)C)[C@H]2O)[C@@H](CC=O)C[C@@H](C)C(=O)C=C[C@]2(C)O[C@H]2[C@@H]1C | 9.29 µM
O=C(N/N=C/c1cc([N+](=O)[O-])ccc1O)c1cccc2cc[nH]c12 | 91.6 µM
CCCCCCCCCCCCCCCC[n+]1ccc(/C=N/O)cc1 | 34.2 µM
CCOc1ccc(Nc2c3ccccc3nc3ccccc23)cc1 | 56.7 µM
Cc1ccc(C(=O)NNC(=S)NC(=O)c2ccccc2)cc1 | 62.8 µM
O=C(N/N=C\C=C\c1ccc([N+](=O)[O-])o1)c1cccs1 | 27.8 µM
CN(C)CCCNC(=S)NCC(c1ccc(Cl)cc1Cl)c1c[nH]c2ccccc12 (stereo not given) | 36.5 µM
O=C(CSc1nc2ccccc2[nH]1)Nc1ccc(F)c(F)c1 | 46.9 µM
Cc1cc2nc(C3CCN(CC4COc5ccccc5O4)CC3)[nH]c2cc1C (stereo not given) | 15.2 µM

Structure (SMILES) | IC50
Fc1ccc(CCNCc2ccc(Cl)c(Cl)c2)cc1 | 68.4 µM
O=C1C(=O)c2ccccc2-c2ccccc21 | 19 µM
O=C(C[n+]1cc(-c2ccccc2)n2c1CCC2)Nc1nc(-c2ccc(F)cc2)cs1 | 141 µM
COc1ccc2nc(NC(=O)C3CC(=O)N(c4ccccc4)C3)sc2c1 (stereo not given) | 107 µM
N=C(N)c1ccc(/C=C/c2ccc(C(=N)N)cc2O)cc1 | 16.2 µM
O=C(N/N=C/c1ccc(O)cc1O)C(=O)N/N=C/c1ccc(O)cc1O | 108 µM
O=C(NC(=S)NNC(=O)c1cccs1)c1ccc(Br)o1 | 25.4 µM
CCn1cc(C(=O)O)c(=O)c2cc(F)c(N3CCN(C(=O)Nc4ccccc4)CC3)cc21 | 21.1 µM
Nc1ncn([C@@H]2O[C@H](CO)[C@@H](O)[C@H]2O)c(=O)n1 | 11.2 µM
Cc1ccc(C(=O)N/N=C\c2sccc2C)cn1 | 128 µM
Cc1cc(NS(=O)(=O)c2ccc(NC(=S)NC(=O)c3cccnc3)cc2)no1 | 126 µM
Cc1ccc(-c2c[n+](Cc3ccc(Cl)cc3)c3n2CCC3)cc1 | 90.3 µM
CCCCC(CC)CN=C(N)NC(N)=NCCCCCCN=C(N)NC(N)=NCC(CC)CCCC (stereo not given) | 2.61 µM
O=C(/C=C/c1ccccc1Cl)Nc1cccc(O)c1 | 61.7 µM
O=C(N/N=C/c1sc2ccccc2c1O)c1cccc2ccccc12 | 26.7 µM
CC[n+]1c(/C=C/C=C/c2ccc(N(C)C)cc2)sc2ccccc21 | 35.7 µM
Fc1ccccc1CCNCc1ccccc1 | 45.7 µM
Cc1ccc2nc(N(CCCN(C)C)C(=O)c3sc4ccccc4c3Cl)sc2c1 | 54.7 µM
CCCCCc1ccc(OCCC[n+]2ccccc2)c(CCCCC)c1 | 82.7 µM
NC1=NC[C@@H](Cc2ccc(O)cc2)N1CCCCC1CCCCC1 | 32.5 µM
O=C(O)c1ccc(N2C(=O)CSC2=S)cc1 | 144 µM
Nc1nc(F)nc2c1ncn2[C@@H]1O[C@H](CO)[C@@H](O)[C@H]1O | 3.76 µM
O=C(N/N=C/c1cc(Br)ccc1O)c1ccccc1Cl | 82.8 µM
